These are literature values, as cited in patent publication US20120252687A1, “Scoring Function Penalizing Compounds Which Desolvate Charged Protein Side Chains Structure” (priority 2011, published 2012).

One data set has as its target Cdk2 (Homo sapiens, UniProt P24941). The note with it: PDB complex.
In a further data set the target is Jnk (Homo sapiens, UniProt P53779). The note with it: PDB complex.

SMILES strings stand for the structures.

Chain of Jnk (P53779 whole entry): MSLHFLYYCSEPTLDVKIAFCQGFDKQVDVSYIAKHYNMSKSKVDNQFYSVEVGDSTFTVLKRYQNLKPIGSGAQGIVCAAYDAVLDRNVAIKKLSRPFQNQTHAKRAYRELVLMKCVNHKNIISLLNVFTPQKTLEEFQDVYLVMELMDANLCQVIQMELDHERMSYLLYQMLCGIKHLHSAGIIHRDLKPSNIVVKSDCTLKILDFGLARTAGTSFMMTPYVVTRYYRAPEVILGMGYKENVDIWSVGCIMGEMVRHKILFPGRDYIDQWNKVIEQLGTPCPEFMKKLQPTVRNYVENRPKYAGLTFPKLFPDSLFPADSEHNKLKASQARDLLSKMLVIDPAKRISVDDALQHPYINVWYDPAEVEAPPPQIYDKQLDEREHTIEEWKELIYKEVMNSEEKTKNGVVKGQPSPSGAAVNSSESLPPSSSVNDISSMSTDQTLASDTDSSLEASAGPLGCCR

For `NS(=O)(=O)c1ccc(Nc2cn3cc(C(=O)c4c(Cl)cccc4Cl)ccc3n2)cc1` [Cdk2_1ykr], at Cdk2, the “dG (experimental free energy of binding)” value is −8.5. Consider `N#Cc1c(NC(=O)c2cccc3ccccc23)sc2c1CCN(C(=O)CCN1CCCCC1)C2` [Jnk_2o0u], for which the “dG (experimental free energy of binding)” value at Jnk is listed as −7.5.
